Patent US20020045254A1, “Established cells” (priority 1998, published 2002)

Tests used:
GLUT-1 transporter = molecular target: T1, GLUT-1 transporter (Rattus norvegicus, UniProt P11167); experiment: 3-OMG uptake by TR-iBRB2 cells (glucose transport capability); assay type: in vitro ADME
T1 construct: endogenous in cells; host or cells: TR-iBRB2, immortalized rat retinal capillary endothelial cells (tsA58 SV40 large T transgenic rat)
T1 sequence (P11167 1-492): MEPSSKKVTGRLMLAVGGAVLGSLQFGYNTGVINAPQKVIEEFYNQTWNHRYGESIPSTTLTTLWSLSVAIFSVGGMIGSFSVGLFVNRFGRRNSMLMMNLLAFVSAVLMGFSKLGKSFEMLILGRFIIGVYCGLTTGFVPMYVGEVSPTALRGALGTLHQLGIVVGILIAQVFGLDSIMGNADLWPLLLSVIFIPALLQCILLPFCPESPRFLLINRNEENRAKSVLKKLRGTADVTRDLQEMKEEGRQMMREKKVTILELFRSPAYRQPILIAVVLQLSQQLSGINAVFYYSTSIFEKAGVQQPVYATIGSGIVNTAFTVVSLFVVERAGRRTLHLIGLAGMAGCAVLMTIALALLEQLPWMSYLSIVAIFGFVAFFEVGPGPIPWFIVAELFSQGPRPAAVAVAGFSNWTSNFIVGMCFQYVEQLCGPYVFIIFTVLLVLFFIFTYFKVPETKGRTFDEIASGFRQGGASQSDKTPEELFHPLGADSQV
Description: The 3-OMG uptake was determined according to the following procedure. After removing medium by aspiration, 0.2 mL of an uptake buffer containing 232 kBq/mL of [^3H]3-OMG heated to 37° C. was added. […] After 10 seconds, the uptake buffer (1) was removed and the residue was washed with the uptake buffer (1) at 4° C. The same procedure was repeated except for changing the period of time before removing the uptake buffer (1) to 20 seconds, 30 seconds, or one minutes. The cells were solubilized in 1 mL of PBS containing 1% Triton X-100 and the radioactivity was measured using a liquid scintillation counter to confirm the linearity of the 3-OMG uptake capability. As a result, an uptake time of 20 seconds was set.
Next, the substrate concentration dependency of the 3-OMG uptake capability was examined. After washing the cells with the uptake buffer (1) heated to 37° C., 0.2 mL of the uptake buffer (1) containing 462 kBq/well of [^3H]3-OMG was added. Solutions containing 3-OMG at different concentrations were prepared by adding non-labeled 3-OMG to the uptake buffer (1) to make final concentrations of 0, 0.5, 1, 5, 10, 20, 30, and 50 mM. […] Next, the cells were solubilized overnight in 1 mL of PBS containing 1% Triton X-100 and the radioactivity was measured using a liquid scintillation counter.

GLUT-1 transport carrier = molecular target: T2, GLUT-1 transport carrier (Rattus norvegicus, UniProt P11167); experiment: 3-OMG uptake by TR-BBB cell lines (glucose transport capability); assay type: in vitro ADME
T2 construct: endogenous in cells; host or cells: TR-BBB1, TR-BBB5, TR-BBB6, TR-BBB11, TR-BBB13, immortalized rat brain capillary endothelial cells
T2 sequence (P11167 1-492): T1 sequence (P11167 1-492)

TR-CSFB3 cells [1] = experiment: Inhibition of L-proline uptake of TR-CSFB3 cells by Na+-free (choline) buffer and ouabain; assay type: cell-based, rat; settings: 30 minutes
Description: The L-proline uptake into the isolated choroid plexus is dependent on Na^+. […] However, because the experiment must be carried out under Na^+-free conditions, all Na^+ in the uptake buffer (1) was replaced with coline. […] Both reactions were carried out for 30 minutes. It was confirmed that L-proline uptake was inhibited as much as 98% under Na^+-free conditions. It was confirmed that 56% of L-proline uptake was inhibited by 1 mM ouabain. As a result, the L-proline uptake of TR-CSFB3 cells was confirmed to be Na^+-dependent.

TR-CSFB3 cells [2] = test system: TR-CSFB3 cells
Description: The concentration dependency of the resulting cells on the L-proline transport was examined to determine the L-proline transport capability.
After the uptake reaction for 30 minutes and washing three times with PBS, 1 mL of PBS containing 1% Triton X-100 was added and the mixture was allowed to stand overnight to solubilize the cells. The radioactivity was measured using a liquid scintillation counter (LS-6500 made by Beckmann Co.).

rabbit choroid plexus = settings: read-out: Km value from rabbit choroid plexus; L-proline, Coben L. A. et al. (1972); cited from earlier work

3-o-methyl-D-glucose [3-OMG]
maximum velocity constant (Vmax) of 3-OMG uptake (GLUT-1 transporter; 20 seconds uptake, 37° C., 0-50 mM 3-OMG): 45 nmol/min/mg protein
Km (GLUT-1 transporter; read-out: Michaelis constant (Km) of 3-OMG uptake, 20 seconds uptake, 37° C., 0-50 mM 3-OMG): 5600 µM
Initial uptake rate (GLUT-1 transport carrier; TR-BBB1 cells): 8.12 ± 0.62 μ1/min/mg protein
Initial uptake rate (GLUT-1 transport carrier; TR-BBB5 cells): 10.1 ± 1.32 μ1/min/mg protein
Initial uptake rate (GLUT-1 transport carrier; TR-BBB6 cells): 7.07 ± 0.92 μ1/min/mg protein
Initial uptake rate (GLUT-1 transport carrier; TR-BBB11 cells): 10.2 ± 0.62 μ1/min/mg protein
Initial uptake rate (GLUT-1 transport carrier; TR-BBB13 cells): 8.96 ± 0.50 μ1/min/mg protein
initial uptake rate of [3H]3-OMG (GLUT-1 transport carrier; span over TR-BBB1, TR-BBB5, TR-BBB6, TR-BBB11 and TR-BBB13 cells): 7.07-10.2 μl/min/mg protein

O=C(O)[C@@H]1CCCN1 [L-proline]
inhibition of L-proline uptake under Na+-free conditions (TR-CSFB3 cells [1]; all Na+ in uptake buffer replaced with choline): 98%
Vmax of L-proline uptake (TR-CSFB3 cells [2]; 30 minutes uptake, 0.005-20 mM L-proline): 2.4 nmol/min/mg protein
Km (TR-CSFB3 cells [2]; read-out: Km of L-proline uptake, 30 minutes uptake, 0.005-20 mM L-proline): 1500 µM
Km (rabbit choroid plexus): 1100 µM

C[C@@H]1O[C@@H](O[C@H]2C[C@@H](O)[C@]3(CO)[C@H]4[C@H](O)C[C@]5(C)[C@@H](C6=CC(=O)OC6)CC[C@]5(O)[C@@H]4CC[C@]3(O)C2)[C@H](O)[C@H](O)[C@H]1O [ouabain]
inhibition at 1000 µM (TR-CSFB3 cells [1]; Rattus norvegicus, 0.5 h, 1 mM ouabain): 56%
